Key:
PDE10 from pig striatum = PDE10 from pig striatum (Sus scrofa, UniProt A0A287B941); assay: Inhibition of PDE10 from pig striatum (Method A / Method B), [3H]-cAMP SPA; assay type: biochemical
Procedure: Striatum from male Wistar rats (180-200 g), male hybrid pigs (150 kg) and male guinea pigs (CRL (HA), 500 g) respectively were collected and frozen at −70° C. […] The supernatant is called the cytosolic fraction and was removed and stored on ice. The pellet was resuspended in the same buffer, but containing 1% Triton and incubated for 45 min at 4° C. Both fractions were independently applied onto a 5 ml Hi Trap™ QHP column at the Äkta-FPLC. After washing the columns the bound PDE protein was eluted with an increasing sodium chloride gradient (0 mM-500 mM sodium chloride) in 50 mM Tris/Mg-buffer at 4° C. for the cytosolic fraction and in the presence of 1% Triton for the membrane fraction. […] The fractions with PDE10-activity were pooled and frozen in aliquots until use at −20° C. PDE10 activity was determined in a one step procedure in microtiter plates. The reaction mixture of 100 μl contained 50 mM Tris-HCl/5 mM MgCl2 buffer (pH=7.4) (Sigma, Deisenhofen, Germany; Merck, Darmstadt, Germany) 0.1 μM [^3H]-cAMP (Amersham, Buckinghamshire, UK) and the enzyme. Nonspecific activity was tested without the enzyme. The reaction was initiated by addition of the substrate solution and was carried out at 37 ° C. for 30 minutes. Enzymatic activity was stopped by addition of 25 μl YSi-SPA-beads (Amersham-Pharmacia). One hour later the mixture was measured in a liquid scintillation counter for microtiter plates (Microbeta Trilux). To pipette the incubation mixture a robot Biomek (Fa. Beckman) is used. […] The optimal amount of enzyme in the assay has been determined and optimised for each enzyme preparation and substrate separately before using the enzyme in compound testing. For determination of IC50 values the Hill-plot, 2-parameter-model, was used. […] Striatum from male hybrid pigs (150 kg) were collected and frozen at −70° C. […] The supernatant was removed and the pellet was resuspended in the same buffer, but containing 1% Triton and incubated for 45 min at 4° C. The membrane fraction was applied onto a 5 ml Hi Trap™ QHP column at the Äkta-FPLC. After washing the column the bound PDE protein was eluted with an increasing sodium chloride gradient (0 mM-500 mM sodium chloride) in 50 mM Tris/Mg-buffer at 4° C. in the presence of 1% Triton. […] The fractions with PDE10-activity were pooled and frozen in aliquots until use at −20° C. PDE10 activity was determined in a one step procedure in microtiterplates. The reaction mixture of 100 μl contained 50 mM Tris-HCl/5 mM MgCl2 buffer (pH=7.4) (Sigma, Deisenhofen, Germany; Merck, Darmstadt, Germany) 0.1 μM [3H]-cAMP (Amersham, Buckinghamshire, UK) and the enzyme. Nonspecific activity was tested without the enzyme. The reaction was initiated by addition of the substrate solution and was carried out at 37° C. for 30 minutes. Enzymatic activity was stopped by addition of 25 μl YSi-SPA-beads (Amersham-Pharmacia). One hour later the mixture was measured in a liquid scintillation counter for microtiterplates (Microbeta Trilux). To pipette the incubation mixture a robot Biomek (Fa. Beckman) is used. […] The optimal amount of enzyme in the assay has been determined and optimised for each enzyme preparation before using the enzyme in compound testing. For determination of IC50 values the Hill-plot, 2-parameter-model, was used.

human recombinant PDE10A = target: T1, human recombinant PDE10A (Homo sapiens, UniProt Q9Y233); assay: Inhibition of human recombinant PDE10A (Method B), [3H]-cAMP SPA; assay type: biochemical; conditions: read-out: PDE10 inhibition IC50 PDE10A human
T1 construct: made in house; host or cells: SF21 insect cells (baculovirus)
Procedure: The gene was than inserted into a baculovirus vector, ligated with the baculovirus DNA. The enzyme-protein was expressed in SF21-cells. The enzyme was isolated from these cells by harvesting the cells by a centrifugation at 200 g to collect the cells. The cells were resuspended in 50 mM Tris-HCl/5 mM MgCl2 buffer (pH=7.4) and lysed by a sonication of the cells. The cytosolic PDE10A was obtained by a centrifugation at 48000 g for 1 h in the supernatant and stored at −70 ° C. PDE10 activity was determined in a one step procedure in microtiterplates. […] Nonspecific activity was tested without the enzyme. The reaction was initiated by addition of the substrate solution and was carried out at 37° C. for 30 minutes. Enzymatic activity was stopped by addition of 25 μl YSi-SPA-beads (Amersham-Pharmacia). One hour later the mixture was measured in a liquid scintillation counter for microtiterplates (Microbeta Trilux). To pipette the incubation mixture a robot Biomek (Fa. Beckman) is used. […] For determination of IC50 values the Hill-plot, 2-parameter-model, was used.

[1] = system: apomorphine-induced stereotypies; conditions: rats; cited from earlier work
[2] = system: haloperidol-induced catalepsy; conditions: rats; cited from earlier work
[3] = system: dopamine concentration in rat brain; conditions: cited from earlier work

T1 sequence (Q9Y233 1-779 isoform Q9Y233-1): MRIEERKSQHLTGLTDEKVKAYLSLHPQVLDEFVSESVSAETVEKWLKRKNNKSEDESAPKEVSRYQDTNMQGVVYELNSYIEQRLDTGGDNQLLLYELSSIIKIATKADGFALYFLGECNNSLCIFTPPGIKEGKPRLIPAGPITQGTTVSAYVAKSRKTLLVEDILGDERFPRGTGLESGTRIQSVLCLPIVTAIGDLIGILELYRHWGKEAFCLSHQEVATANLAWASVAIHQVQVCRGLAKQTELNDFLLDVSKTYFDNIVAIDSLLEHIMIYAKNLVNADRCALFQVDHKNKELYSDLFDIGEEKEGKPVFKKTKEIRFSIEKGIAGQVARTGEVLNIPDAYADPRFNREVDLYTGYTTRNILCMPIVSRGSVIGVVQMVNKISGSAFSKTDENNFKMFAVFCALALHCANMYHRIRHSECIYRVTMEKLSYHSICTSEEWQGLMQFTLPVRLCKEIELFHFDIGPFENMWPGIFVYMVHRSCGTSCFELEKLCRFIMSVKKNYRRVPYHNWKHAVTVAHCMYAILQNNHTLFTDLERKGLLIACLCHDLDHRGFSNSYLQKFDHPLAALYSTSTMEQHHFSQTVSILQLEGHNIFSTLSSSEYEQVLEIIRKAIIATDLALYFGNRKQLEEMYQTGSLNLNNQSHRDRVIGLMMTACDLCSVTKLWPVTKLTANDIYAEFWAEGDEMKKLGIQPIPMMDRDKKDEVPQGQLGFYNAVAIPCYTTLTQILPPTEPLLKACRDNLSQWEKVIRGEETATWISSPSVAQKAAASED

| SMILES | IC50 (PDE10 from pig striatum) [nM] | melting point [°C] | IC50 (human recombinant PDE10A) [nM] | effect on apomorphine-induced stereotypies [1] | effect on haloperidol-induced catalepsy [2] | effect on dopamine concentration in rat brain [3] |
| --- | --- | --- | --- | --- | --- | --- |
| COc1ccc(Cc2nccc3cc(OC)c(OC)cc23)cc1OC [Papaverine] | – | – | – | reduces apomorphine-induced stereotypies | increases haloperidol-induced catalepsy | reducing dopamine concentration |
| Cc1nc(-c2ccccc2Cl)n2c1c(NS(C)(=O)=O)nc1ccc(F)cc12 [Example 5, N-(1-(2-Chlorphenyl)-8-fluoro-3-methyl-imidazo(1,5-a)quinoxalin-4-yl)-methanesulfonamide] | 10 to 100 | – | – | – | – | – |
| CCc1nc(C)c2c(NS(C)(=O)=O)nc3ccc(N4CCCCC4)cc3n12 [Example 7, N-[1-Ethyl-3-methyl-8-(piperidin-1-yl)-imidazo(1,5-a)quinoxalin-4-yl]-methanesulfonamide] | 10 to 100 | 223 to 227 | – | – | – | – |
| CCCc1nc(C)c2c(C#N)nc3ccc(F)cc3n12 [Example 1, 8-Fluoro-3-methyl-1-propyl-imidazo(1,5-a)quinoxaline-4-carbonitrile] | 10 to 100 | – | – | – | – | – |
| Cc1nc(C2CCCCC2)n2c1c(NS(C)(=O)=O)nc1ccc(OCC3CC3)cc12 [Example 12, N-(1-Cyclohexyl-8-cyclopropylmethoxy-3-methyl-imidazo[1,5-a]quinoxalin-4-yl)-methanesulfonamide] | ≤ 10 | 259 to 261 | 10 to 100 | – | – | – |
| CCCc1nc(C)c2c(NS(C)(=O)=O)nc3ccc(OCC4CC4)cc3n12 [Example 11, N-(8-Cyclopropylmethoxy-3-methyl-1-propyl-imidazo[1,5-a]quinoxalin-4-yl)-methanesulfonamide] | – | 240 to 241 | ≤ 10 | – | – | – |
| Cc1nc(C2CCCCC2)n2c1c(NS(C)(=O)=O)nc1ccc(OCc3ccc4ccccc4n3)cc12 [Example 13, N-[1-Cyclohexyl-3-methyl-8-(quinolin-2-ylmethoxy)-imidazo[1,5-a]quinoxalin-4-yl]-methanesulfonamide] | ≤ 10 | 255 to 258 | ≤ 10 | – | – | – |
| CCCc1nc(C)c2c(NS(C)(=O)=O)nc3ccc(F)cc3n12 [Example 4, N-(8-Fluoro-3-methyl-1-propyl-imidazo(1,5-a)quinoxalin-4-yl)-methanesulfonamide] | 10 to 100 | 277 to 280 | – | – | – | – |
| COc1ccc2nc(NS(C)(=O)=O)c3c(C)nc(C4CCCCC4)n3c2c1 [Example 10, N-(1-Cyclohexyl-8-methoxy-3-methyl-imidazo[1,5-a]quinoxalin-4-yl)-methanesulfonamide] | – | 287 to 288 | 10 to 100 | – | – | – |
| CCc1nc(C)c2c(NS(C)(=O)=O)nc3ccc(F)cc3n12 [Example 3, N-(1-Ethyl-8-fluoro-3-methyl-imidazo(1,5-a)quinoxalin-4-yl)-methanesulfonamide] | ≥ 100 | 268 to 269 | – | – | – | – |
| COc1ccc2c(c1)nc(NS(C)(=O)=O)c1c(C)nc(-c3ccccc3Cl)n12 [Example 14, N-[1-(2-Chloro-phenyl)-7-methoxy-3-methyl-imidazo[1,5-a]quinoxalin-4-yl]-methanesulfonamide] | 10 to 100 | 277 to 278 | 10 to 100 | – | – | – |
| CCCc1nc(C)c2c(NS(C)(=O)=O)nc3ccc(OC)cc3n12 [Example 9, N-(8-Methoxy-3-methyl-1-propyl-imidazo[1,5-a]quinoxalin-4-yl)-methanesulfonamide] | – | 234 to 237 | 10 to 100 | – | – | – |
| Cc1nc(C2CCCCC2)n2c1c(NS(C)(=O)=O)nc1ccc(F)cc12 [Example 6, N-(1-Cyclohexyl-8-fluoro-3-methyl-imidazo(1,5-a)quinoxalin-4-yl)-methanesulfonamide] | 10 to 100 | 291 to 293 | – | – | – | – |
| COc1ccc2nc(C#N)c3c(C)nc(C4CCCCC4)n3c2c1 [Example 8, 1-Cyclohexyl-8-methoxy-3-methyl-imidazo[1,5-a]quinoxaline-4-carbonitrile] | 10 to 100 | 244 to 248 | ≥ 100 | – | – | – |
| CCCc1nc(C)c2c(NS(C)(=O)=O)nc3cc(OC)ccc3n12 [Example 15, N-(7-Methoxy-3-methyl-1-propyl-imidazo[1,5-a]quinoxalin-4-yl)-methanesulfonamide] | 10 to 100 | 222 to 226 | 10 to 100 | – | – | – |
| CCc1nc(C)c2c(NS(C)(=O)=O)nc3ccccc3n12 [Example 2, N-(1-Ethyl-3-methyl-imidazo(1,5-a)quinoxalin-4-yl)-methanesulfonamide] | ≥ 100 | – | – | – | – | – |

Continued, in another order:

| IC50 (PDE10 from pig striatum) [nM] | melting point [°C] | IC50 (human recombinant PDE10A) [nM] | SMILES | effect on apomorphine-induced stereotypies [1] | effect on haloperidol-induced catalepsy [2] | effect on dopamine concentration in rat brain [3] |
| --- | --- | --- | --- | --- | --- | --- |
| 10 to 100 | 205 to 210 | – | Cc1nc(C2CCCCC2)n2c1c(Cl)nc1ccc(F)cc12 [Example B7] | – | – | – |
| – | 212 to 215 | 10 to 100 | COc1ccc2nc(Cl)c3c(C)nc(C4CCCCC4)n3c2c1 [Example B11] | – | – | – |
| – | 165 to 168 | ≥ 100 | Cc1nc(C2CCCCC2)n2c1c(Cl)nc1ccc(OCC3CC3)cc12 [Example B13] | – | – | – |
| 10 to 100 | 125 to 128 | – | CCc1nc(C)c2c(Cl)nc3ccccc3n12 [Example B3] | – | – | – |
| – | 154 to 159 | 10 to 100 | CCCc1nc(C)c2c(Cl)nc3cc(OC)ccc3n12 [Example B15] | – | – | – |
| ≥ 100 | 244 to 248 | – | Cc1nc(C2CCCCC2)n2c1c(Cl)nc1ccc(Cl)cc12 [Example B9] | – | – | – |
| 10 to 100 | 133 to 135 | – | CCCc1nc(C)c2c(Cl)nc3ccc(F)cc3n12 [Example B6, 4-Chloro-8-fluoro-3-methyl-1-propyl-imidazo(1,5-a)quinoxaline] | – | – | – |
| – | 103 to 105 | 10 to 100 | CCCc1nc(C)c2c(Cl)nc3ccc(OCC4CC4)cc3n12 [Example B12] | – | – | – |
| 10 to 100 | 160 to 163 | – | CCc1nc(C)c2c(Cl)nc3ccc(N4CCCCC4)cc3n12 [Example B2, 4-Chloro-1-ethyl-3-methyl-8-piperidin-1-yl-imidazo(1,5-a)quinoxaline] | – | – | – |
